Assay results published in ChEMBL document CHEMBL1201862, “PubChem BioAssay data set” (2004).
Active and inactive are the calls of the source.

How the values were obtained:
[1] = LGR2 antagonists, dose response, cell-based, HEK293, CRE-luciferase reporter, cherry pick, set 2 (AID 743343); assay type: functional;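 note: transfected cells were stimulated with diluted bursicon conditioned medium after compound addition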
[2] = MC4R antagonists, dose response, counter-screen for LGR2 antagonist project, cell-based, plate reader, cherry pick (AID 743444); assay type: functional;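 note: transfected HEK 293 cells stimulated with alpha-MSH peptide; potency of inhibitors of the alpha-MSH evoked signal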
[3] = target: T1, Trace amine-associated receptor 1 (Homo sapiens, UniProt Q96RJ0); experiment: Counterscreen for agonists of the human trace amine associated receptor 1 (hTAAR1): Fluorescence-based cell-based high throughput dose response assay to identify hTAAR1 agonist that also desensitize TAAR1 receptor response.; assay type: functional
T1 sequence (Q96RJ0 whole entry): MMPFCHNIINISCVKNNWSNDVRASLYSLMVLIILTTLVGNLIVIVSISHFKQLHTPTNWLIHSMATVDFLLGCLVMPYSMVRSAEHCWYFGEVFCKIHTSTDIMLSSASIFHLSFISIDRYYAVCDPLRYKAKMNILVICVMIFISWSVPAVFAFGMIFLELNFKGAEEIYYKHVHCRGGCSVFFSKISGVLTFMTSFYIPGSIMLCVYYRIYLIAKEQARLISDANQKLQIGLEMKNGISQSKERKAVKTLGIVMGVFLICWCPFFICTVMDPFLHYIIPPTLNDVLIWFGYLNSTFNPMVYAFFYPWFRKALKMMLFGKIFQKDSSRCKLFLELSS

cells [4] = assay type: functional, cell-based
[5] = target: T1, Trace amine-associated receptor 1; experiment: Fluorescence-based cell-based high throughput dose response assay to identify agonists of the human trace amine associated receptor 1 (TAAR1).; assay type: functional
cells [6] = assay type: functional, cell-based; remark: listed apart in the source
[7] = target: T2, Ubiquitin-conjugating enzyme E2 N (Homo sapiens, UniProt P61088); assay type: functional;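 note: Dose-response confirmation in a TR-FRET assay detecting UBC13-driven polyubiquitin chain formation, inhibition measured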
T2 sequence (P61088 whole entry): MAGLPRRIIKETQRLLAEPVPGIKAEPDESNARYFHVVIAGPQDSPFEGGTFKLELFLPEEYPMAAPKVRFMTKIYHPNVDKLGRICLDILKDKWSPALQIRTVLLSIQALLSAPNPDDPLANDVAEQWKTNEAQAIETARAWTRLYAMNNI

[8] = target: T3, Mannose-6-phosphate isomerase (Homo sapiens, UniProt P34949); experiment: human PMI inhibitors, high substrate, primary screen, biochemical, fluorescence intensity, high mannose 6-phosphate (AID 1220)
T3 sequence (P34949 whole entry): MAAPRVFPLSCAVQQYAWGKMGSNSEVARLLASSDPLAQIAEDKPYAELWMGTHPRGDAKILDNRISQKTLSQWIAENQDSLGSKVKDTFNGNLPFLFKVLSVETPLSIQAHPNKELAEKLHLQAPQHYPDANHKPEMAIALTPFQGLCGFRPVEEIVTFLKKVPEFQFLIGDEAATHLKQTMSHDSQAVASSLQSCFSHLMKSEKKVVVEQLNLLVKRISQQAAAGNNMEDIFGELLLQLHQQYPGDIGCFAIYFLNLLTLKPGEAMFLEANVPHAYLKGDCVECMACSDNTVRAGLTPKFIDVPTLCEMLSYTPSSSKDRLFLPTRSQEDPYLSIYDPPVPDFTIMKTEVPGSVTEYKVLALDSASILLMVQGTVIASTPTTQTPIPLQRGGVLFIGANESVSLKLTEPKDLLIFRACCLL

cells [9] = assay type: functional, cell-based; remark: listed apart in the source
cells [10] = assay type: functional, cell-based; remark: listed apart in the source
Protein RecA = target: T4, Protein RecA (Mycobacterium tuberculosis, UniProt P9WHJ3); experiment: Fluorescence Cell-Free Homogeneous Dose Retest to Identify Inhibitors of RecA-Intein Splicing Activity. [Related pubchem assays (depositor defined):AID2097, AID2223, AID489010, AID492950]; assay type: functional
T4 sequence (P9WHJ3 whole entry): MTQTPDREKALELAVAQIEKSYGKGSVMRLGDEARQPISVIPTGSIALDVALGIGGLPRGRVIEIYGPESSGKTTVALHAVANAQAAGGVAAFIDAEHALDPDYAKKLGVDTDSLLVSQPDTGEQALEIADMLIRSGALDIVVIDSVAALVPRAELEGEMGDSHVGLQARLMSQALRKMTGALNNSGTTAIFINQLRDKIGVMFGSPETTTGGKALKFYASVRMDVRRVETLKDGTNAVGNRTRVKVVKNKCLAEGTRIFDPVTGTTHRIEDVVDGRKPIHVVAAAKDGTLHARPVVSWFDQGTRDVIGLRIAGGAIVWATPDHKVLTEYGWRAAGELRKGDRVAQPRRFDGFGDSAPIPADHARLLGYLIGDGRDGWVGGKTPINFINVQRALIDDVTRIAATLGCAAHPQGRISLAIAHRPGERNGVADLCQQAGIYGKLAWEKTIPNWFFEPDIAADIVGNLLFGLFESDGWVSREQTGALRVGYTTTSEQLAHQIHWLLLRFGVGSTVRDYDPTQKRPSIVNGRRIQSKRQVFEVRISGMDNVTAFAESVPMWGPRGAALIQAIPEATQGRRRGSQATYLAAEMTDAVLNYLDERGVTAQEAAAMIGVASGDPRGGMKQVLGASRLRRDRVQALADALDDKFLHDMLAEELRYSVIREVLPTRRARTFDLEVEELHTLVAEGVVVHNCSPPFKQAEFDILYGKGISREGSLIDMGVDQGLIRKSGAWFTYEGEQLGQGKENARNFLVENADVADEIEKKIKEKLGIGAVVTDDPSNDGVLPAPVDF

[11] = target: T5, Replicative DNA helicase DnaB (Mycobacterium tuberculosis, UniProt P9WMR3); experiment: DnaB intein splicing inhibitors, dose response, biochemical, cell-free fluorescence (AID 449749); assay type: functional
T5 sequence (P9WMR3 whole entry): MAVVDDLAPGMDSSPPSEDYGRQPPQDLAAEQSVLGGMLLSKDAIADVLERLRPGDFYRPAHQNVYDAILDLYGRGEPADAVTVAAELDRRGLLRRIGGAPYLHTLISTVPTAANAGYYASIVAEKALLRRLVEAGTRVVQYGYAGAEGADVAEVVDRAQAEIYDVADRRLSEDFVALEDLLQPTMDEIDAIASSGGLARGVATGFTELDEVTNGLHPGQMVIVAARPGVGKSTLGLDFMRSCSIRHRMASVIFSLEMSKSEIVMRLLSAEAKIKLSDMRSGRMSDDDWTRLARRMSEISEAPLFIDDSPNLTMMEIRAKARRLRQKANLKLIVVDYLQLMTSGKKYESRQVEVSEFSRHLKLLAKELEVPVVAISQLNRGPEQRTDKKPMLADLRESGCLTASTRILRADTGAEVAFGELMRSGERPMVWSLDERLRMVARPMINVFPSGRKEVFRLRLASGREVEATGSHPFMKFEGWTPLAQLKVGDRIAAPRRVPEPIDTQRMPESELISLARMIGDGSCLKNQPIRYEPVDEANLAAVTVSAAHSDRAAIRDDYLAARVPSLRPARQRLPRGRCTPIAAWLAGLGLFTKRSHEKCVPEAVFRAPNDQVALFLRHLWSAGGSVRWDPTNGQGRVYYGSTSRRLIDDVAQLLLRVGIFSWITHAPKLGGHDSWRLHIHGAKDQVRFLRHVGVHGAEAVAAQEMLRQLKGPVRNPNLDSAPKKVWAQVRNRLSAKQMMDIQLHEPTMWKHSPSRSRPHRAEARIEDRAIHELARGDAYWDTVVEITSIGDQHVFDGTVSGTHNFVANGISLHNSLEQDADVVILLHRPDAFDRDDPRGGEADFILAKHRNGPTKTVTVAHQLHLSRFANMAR

H9c2 = experiment: cells; assay type: functional, cell-based; conditions: Rattus norvegicus, H9c2, Myocardium
Leucine aminopeptidase = target: T6, Leucine aminopeptidase (Plasmodium falciparum 3D7, UniProt Q8IL11); experiment: P. falciparum M17LAP inhibitors, primary screen, biochemical, fluorogenic H-Leu-NHMec substrate, 1536-well (AID 1619); assay type: functional
T6 sequence (Q8IL11 whole entry): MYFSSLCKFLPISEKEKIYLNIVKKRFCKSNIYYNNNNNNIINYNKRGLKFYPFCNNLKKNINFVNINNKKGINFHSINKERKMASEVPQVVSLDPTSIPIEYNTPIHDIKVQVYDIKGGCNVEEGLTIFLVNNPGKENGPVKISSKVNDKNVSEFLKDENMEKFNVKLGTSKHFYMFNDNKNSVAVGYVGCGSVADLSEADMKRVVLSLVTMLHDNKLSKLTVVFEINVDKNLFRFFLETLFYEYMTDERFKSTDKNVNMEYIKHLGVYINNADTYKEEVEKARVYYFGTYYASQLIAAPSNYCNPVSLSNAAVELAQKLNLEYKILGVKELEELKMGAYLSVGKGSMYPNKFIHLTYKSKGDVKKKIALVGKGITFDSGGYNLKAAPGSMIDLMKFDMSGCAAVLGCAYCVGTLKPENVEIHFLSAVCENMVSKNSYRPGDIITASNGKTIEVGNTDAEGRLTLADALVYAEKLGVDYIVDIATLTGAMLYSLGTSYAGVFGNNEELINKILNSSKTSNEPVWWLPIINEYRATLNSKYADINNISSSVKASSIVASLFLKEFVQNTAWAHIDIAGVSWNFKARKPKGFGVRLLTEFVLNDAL

[12] = target: T7, Zinc finger protein mex-5 (Caenorhabditis elegans, UniProt Q9XUB2); experiment: MEX-5/TCR-2 RNA interaction inhibitors, dose response, biochemical, C. elegans, fluorescence polarization (AID 1960)
T7 sequence (Q9XUB2 whole entry): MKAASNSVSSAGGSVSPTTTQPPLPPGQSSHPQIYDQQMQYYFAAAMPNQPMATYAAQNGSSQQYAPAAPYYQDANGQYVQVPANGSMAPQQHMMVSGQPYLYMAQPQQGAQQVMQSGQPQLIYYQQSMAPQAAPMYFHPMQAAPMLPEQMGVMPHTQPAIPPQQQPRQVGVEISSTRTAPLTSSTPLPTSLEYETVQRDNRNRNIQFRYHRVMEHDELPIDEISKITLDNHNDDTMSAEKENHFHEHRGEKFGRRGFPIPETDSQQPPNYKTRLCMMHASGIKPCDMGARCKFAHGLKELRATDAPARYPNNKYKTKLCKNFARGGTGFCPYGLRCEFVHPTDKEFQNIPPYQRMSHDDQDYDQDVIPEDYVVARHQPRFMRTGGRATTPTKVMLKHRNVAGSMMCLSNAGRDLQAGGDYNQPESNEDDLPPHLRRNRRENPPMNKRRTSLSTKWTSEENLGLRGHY

[13] = target: T8, RNA-binding protein pos-1 (Caenorhabditis elegans, UniProt G5EF15); experiment: inhibitors of POS-1/mex-3 RNA binding, dose response, biochemical, fluorescence polarization (AID 1964);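 note: purified POS-1 fused to maltose binding protein made in E. coli; potency of compounds blocking POS-1 binding to fluorescent RNA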
T8 sequence (G5EF15 whole entry): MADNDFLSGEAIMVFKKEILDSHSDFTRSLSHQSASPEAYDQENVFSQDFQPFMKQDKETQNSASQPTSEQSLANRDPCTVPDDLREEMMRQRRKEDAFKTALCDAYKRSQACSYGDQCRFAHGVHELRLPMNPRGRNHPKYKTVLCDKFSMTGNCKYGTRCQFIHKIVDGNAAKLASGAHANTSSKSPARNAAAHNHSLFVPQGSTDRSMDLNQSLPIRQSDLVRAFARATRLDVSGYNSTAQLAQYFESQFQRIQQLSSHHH

## Cc1ccc(-c2cc(C(=O)N3CCOCC3)no2)cc1
[1]
  AC50: 2.95 µM (active)
[2]
  AC50: 2.81 µM (active)

## CCOc1cc2c(C#N)c(N3CCNCC3)nc(N)c2c(N)n1
[3]
  IC50: 8.23 µM (active)
Cells [4]
  IC50: > 29.9 µM (inactive)
[5]
  EC50: 5.69 µM (active)
Cells [6]
  EC50: > 29.9 µM (inactive)
[7]
  IC50: > 20 µM (inactive)
[8]
  IC50: > 50 µM (not active)

## Fc1ccc(CSc2ccc(-c3ccco3)nn2)cc1
Cells [9]
  EC50: 7.7 µM (active)
Cells [10]
  EC50: > 350 µM (not active)

## CCC(=O)OCCNc1cc(SCCC(=O)OC)c2nonc2c1[N+](=O)[O-]
Protein RecA
  EC50: 5.12 µM (active)
[11]
  AC50: 116 µM (active)
H9c2
  IC50: 14.5 µM (active)
[8]
  IC50: > 50 µM (not active)

## N#Cc1cccc(NC(=O)CN2NS(=O)(=O)c3ccccc3C2=O)c1
Leucine aminopeptidase
  IC50: 14.9 µM (active)

## COc1ccc(O)c(/C=N/c2sc(C)c(C)c2C#N)c1
[8]
  IC50: > 50 µM (not active)

## O=C1OCc2cc(NC(=O)C34CC5CC(CC(C5)C3)C4)ccc21
Cells [9]
  EC50: > 350 µM (not active)
Cells [10]
  EC50: > 350 µM (not active)

## CCCn1c(O)c(C#N)c(C)c(CN2CCCC(C)C2)c1=O (centres undefined)
[3]
  IC50: 13 µM (inactive)
Cells [4]
  IC50: > 29.9 µM (inactive)
[12]
  EC50: 6.59 µM (active)
[5]
  EC50: 3.04 µM (active)
Cells [6]
  EC50: > 29.9 µM (inactive)
[13]
  EC50: > 300 µM (inconclusive)
